Data as given in PubChem BioAssay AID1963973 (Molecular Pharmacology Branch, DTP, NCI, 2024).

System: 883617-216-R-J1-PDC tumor spheroids, viability
Experiment: Anticancer human tumor 883617-216-R-J1-PDC patient-derived bladder carcinoma cell line growth inhibition [PI3K]
Conditions: spheroids with HUVEC and MSC; for IC50: curve of first compound; for viability, T/C: stronger effect = lower value
Method in brief: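 Tumor cells were combined with HUVEC and MSCs into spheroids, then dosed with PI3K-inhibitor combinations over half-log ranges capped near clinical Cmax or 10 microM.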

[1] = second compound 0.0316 µM, first compound 0.0316 µM
[2] = second compound 0.0316 µM, first compound 0.1 µM
[3] = second compound 0.1 µM, first compound 0.0316 µM
[4] = second compound 0.1 µM, first compound 0.1 µM
[5] = second compound 0.316 µM, first compound 0.0316 µM
[6] = second compound 0.316 µM, first compound 0.1 µM
[7] = second compound 1 µM, first compound 0.0316 µM
[8] = second compound 1 µM, first compound 0.1 µM
[9] = second compound 3.16 µM, first compound 0.0316 µM
[10] = second compound 3.16 µM, first compound 0.1 µM
[11] = second compound 10 µM, first compound 0.0316 µM
[12] = second compound 10 µM, first compound 0.1 µM
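Also: spheroids exposed to agents for 7 days before the viability read.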

## CC(=O)c1c(C)c2cnc(Nc3ccc(N4CCNCC4)cn3)nc2n(C2CCCC2)c1=O + CC(Nc1ncnc2nc[nH]c12)c1cc2cccc(Cl)c2c(=O)n1-c1ccccc1
Second compound 0.0316 µM
  IC50: 86 nM
Second compound 0.1 µM
  IC50: 79.9 nM
Second compound 0.316 µM
  IC50: 76.2 nM
Second compound 1 µM
  IC50: 46.7 nM
Second compound 3.16 µM
  IC50: 23 nM
Second compound 10 µM
  IC50: < 0.316 nM
Second compound 0.0316 µM, first compound 0.000316 µM
  viability, T/C: 92.9%
Second compound 0.0316 µM, first compound 0.001 µM
  viability, T/C: 94.6%
Second compound 0.0316 µM, first compound 0.00316 µM
  viability, T/C: 87.7%
Second compound 0.0316 µM, first compound 0.01 µM
  viability, T/C: 86.6%
[1]
  viability, T/C: 79.6%
[2]
  viability, T/C: 45.2%
Second compound 0.1 µM, first compound 0.000316 µM
  viability, T/C: 96%
Second compound 0.1 µM, first compound 0.001 µM
  viability, T/C: 107%
Second compound 0.1 µM, first compound 0.00316 µM
  viability, T/C: 76.3%
Second compound 0.1 µM, first compound 0.01 µM
  viability, T/C: 79.8%
[3]
  viability, T/C: 86.3%
[4]
  viability, T/C: 40.8%
Second compound 0.316 µM, first compound 0.000316 µM
  viability, T/C: 100%
Second compound 0.316 µM, first compound 0.001 µM
  viability, T/C: 95.3%
Second compound 0.316 µM, first compound 0.00316 µM
  viability, T/C: 87.1%
Second compound 0.316 µM, first compound 0.01 µM
  viability, T/C: 84.3%
[5]
  viability, T/C: 58.8%
[6]
  viability, T/C: 47.3%
Second compound 1 µM, first compound 0.000316 µM
  viability, T/C: 98%
Second compound 1 µM, first compound 0.001 µM
  viability, T/C: 78.3%
Second compound 1 µM, first compound 0.00316 µM
  viability, T/C: 80.3%
Second compound 1 µM, first compound 0.01 µM
  viability, T/C: 71.3%
[7]
  viability, T/C: 58.6%
[8]
  viability, T/C: 36.4%
Second compound 3.16 µM, first compound 0.000316 µM
  viability, T/C: 76%
Second compound 3.16 µM, first compound 0.001 µM
  viability, T/C: 61.3%
Second compound 3.16 µM, first compound 0.00316 µM
  viability, T/C: 68.8%
Second compound 3.16 µM, first compound 0.01 µM
  viability, T/C: 58.6%
[9]
  viability, T/C: 44.1%
[10]
  viability, T/C: 38.1%
Second compound 10 µM, first compound 0.000316 µM
  viability, T/C: 52.7%
Second compound 10 µM, first compound 0.001 µM
  viability, T/C: 39.4%
Second compound 10 µM, first compound 0.00316 µM
  viability, T/C: 41.4%
Second compound 10 µM, first compound 0.01 µM
  viability, T/C: 46.4%
[11]
  viability, T/C: 31.9%
[12]
  viability, T/C: 23.9%

## CNC(=O)c1ccc(N2C(=S)N(c3ccc(C#N)c(C(F)(F)F)c3)C(=O)C2(C)C)cc1F + CC(Nc1ncnc2nc[nH]c12)c1cc2cccc(Cl)c2c(=O)n1-c1ccccc1
Second compound 0.0316 µM
  IC50: > 10000 nM
Second compound 0.1 µM
  IC50: > 10000 nM
Second compound 0.316 µM
  IC50: > 10000 nM
Second compound 1 µM
  IC50: > 10000 nM
Second compound 3.16 µM
  IC50: > 10000 nM
Second compound 10 µM
  IC50: 3250 nM
[1]
  viability, T/C: 91.8%
[2]
  viability, T/C: 94.3%
Second compound 0.0316 µM, first compound 0.316 µM
  viability, T/C: 92.8%
Second compound 0.0316 µM, first compound 1 µM
  viability, T/C: 96.2%
Second compound 0.0316 µM, first compound 3.16 µM
  viability, T/C: 83.9%
Second compound 0.0316 µM, first compound 10 µM
  viability, T/C: 89%
[3]
  viability, T/C: 89.4%
[4]
  viability, T/C: 93.2%
Second compound 0.1 µM, first compound 0.316 µM
  viability, T/C: 90.2%
Second compound 0.1 µM, first compound 1 µM
  viability, T/C: 103%
Second compound 0.1 µM, first compound 3.16 µM
  viability, T/C: 89.8%
Second compound 0.1 µM, first compound 10 µM
  viability, T/C: 67%
[5]
  viability, T/C: 88.1%
[6]
  viability, T/C: 98.9%
Second compound 0.316 µM, first compound 0.316 µM
  viability, T/C: 84.9%
Second compound 0.316 µM, first compound 1 µM
  viability, T/C: 88.6%
Second compound 0.316 µM, first compound 3.16 µM
  viability, T/C: 82.7%
Second compound 0.316 µM, first compound 10 µM
  viability, T/C: 70.2%
[7]
  viability, T/C: 84.5%
[8]
  viability, T/C: 90.8%
Second compound 1 µM, first compound 0.316 µM
  viability, T/C: 83%
Second compound 1 µM, first compound 1 µM
  viability, T/C: 89.8%
Second compound 1 µM, first compound 3.16 µM
  viability, T/C: 73.3%
Second compound 1 µM, first compound 10 µM
  viability, T/C: 79.7%
[9]
  viability, T/C: 70.6%
[10]
  viability, T/C: 78.5%
Second compound 3.16 µM, first compound 0.316 µM
  viability, T/C: 72.7%
Second compound 3.16 µM, first compound 1 µM
  viability, T/C: 76.4%
Second compound 3.16 µM, first compound 3.16 µM
  viability, T/C: 69.2%
Second compound 3.16 µM, first compound 10 µM
  viability, T/C: 55.6%
[11]
  viability, T/C: 50.8%
[12]
  viability, T/C: 53.1%
Second compound 10 µM, first compound 0.316 µM
  viability, T/C: 50.5%
Second compound 10 µM, first compound 1 µM
  viability, T/C: 47.4%
Second compound 10 µM, first compound 3.16 µM
  viability, T/C: 50.6%
Second compound 10 µM, first compound 10 µM
  viability, T/C: 38.9%
